Assay results reported in ChEMBL document CHEMBL1201862, “PubChem BioAssay data set” (2004).
Activity calls are given as the source filed them.

Experiments:
[1] = biological target: Induced myeloid leukemia cell differentiation protein Mcl-1 (Homo sapiens, UniProt Q07820); assay type: functional
[2] = biological target: Heat shock protein HSP 90-alpha (Homo sapiens, UniProt P07900); assay type: functional, organism-based
[3] = cytotoxicity in HEK-293T cells, dose response, cytotoxicity control for TCR NF-kB inhibitor project, luminescence, T-cell screen hits (AID 489026); assay type: functional, cell-based;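 also: cells exposed to compound about 14 hours before the viability readout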
cells [4] = assay: cells
[5] = HEp-2 cell cytotoxicity, dose response, cytotoxicity control for RSV inhibitor project, HTS (AID 2410); assay type: functional; settings: human respiratory syncytial virus
[6] = biological target: T1, Mannose-6-phosphate isomerase (Homo sapiens, UniProt P34949); assay: human PMI inhibitors, high substrate, primary screen, biochemical, fluorescence intensity, high mannose 6-phosphate (AID 1220)
T1 sequence (P34949 whole entry): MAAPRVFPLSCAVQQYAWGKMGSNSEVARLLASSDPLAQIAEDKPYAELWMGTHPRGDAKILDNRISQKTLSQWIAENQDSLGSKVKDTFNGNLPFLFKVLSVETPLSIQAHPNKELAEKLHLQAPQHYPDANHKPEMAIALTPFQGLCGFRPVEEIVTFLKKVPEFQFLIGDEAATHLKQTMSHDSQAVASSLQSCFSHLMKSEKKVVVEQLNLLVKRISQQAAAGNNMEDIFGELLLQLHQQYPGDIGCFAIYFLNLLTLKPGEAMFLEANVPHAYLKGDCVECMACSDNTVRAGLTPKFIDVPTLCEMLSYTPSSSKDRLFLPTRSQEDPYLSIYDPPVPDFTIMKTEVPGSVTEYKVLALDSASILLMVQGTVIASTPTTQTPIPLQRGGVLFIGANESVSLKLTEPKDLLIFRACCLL

[7] = biological target: T2, Microphthalmia-associated transcription factor (Homo sapiens, UniProt O75030); assay: TRPM1 promoter luciferase signal decrease, dose response, MITF inhibitor project, cell-based, SK-MEL-5, cherry-picked, set 3 (AID 493073); assay type: functional
T2 sequence (O75030 whole entry): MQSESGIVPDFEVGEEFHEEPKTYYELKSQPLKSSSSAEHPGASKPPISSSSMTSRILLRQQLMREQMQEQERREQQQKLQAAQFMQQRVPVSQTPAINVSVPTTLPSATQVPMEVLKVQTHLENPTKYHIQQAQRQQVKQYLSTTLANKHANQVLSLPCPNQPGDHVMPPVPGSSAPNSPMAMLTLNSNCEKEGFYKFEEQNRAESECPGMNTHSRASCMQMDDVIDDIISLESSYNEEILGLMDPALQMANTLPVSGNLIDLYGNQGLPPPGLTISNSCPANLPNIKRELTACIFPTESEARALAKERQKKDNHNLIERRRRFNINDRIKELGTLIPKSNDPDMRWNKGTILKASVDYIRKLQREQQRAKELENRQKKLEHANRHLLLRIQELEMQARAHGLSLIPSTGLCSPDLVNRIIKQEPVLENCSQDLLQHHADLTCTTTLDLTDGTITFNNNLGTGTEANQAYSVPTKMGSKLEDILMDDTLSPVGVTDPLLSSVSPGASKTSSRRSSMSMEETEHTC

[8] = growth suppression of PTEN-null colon cells, dose response, cell-based, HCT116 PTEN knockout (AID 1047); assay type: functional;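 also: HCT116 colon tumor cells with PTEN knocked out; cells exposed to compound for 60 hours before readout; potency for loss of cell viability measured by luminescence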
Large T antigen = Large T antigen (Simian virus 40, UniProt P03070); assay type: functional, Betapolyomavirus macacae;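 also: Confirmatory-stage PubChem screen for compounds that inhibit SV40 T antigen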
Sequence of Large T antigen (P03070 whole entry): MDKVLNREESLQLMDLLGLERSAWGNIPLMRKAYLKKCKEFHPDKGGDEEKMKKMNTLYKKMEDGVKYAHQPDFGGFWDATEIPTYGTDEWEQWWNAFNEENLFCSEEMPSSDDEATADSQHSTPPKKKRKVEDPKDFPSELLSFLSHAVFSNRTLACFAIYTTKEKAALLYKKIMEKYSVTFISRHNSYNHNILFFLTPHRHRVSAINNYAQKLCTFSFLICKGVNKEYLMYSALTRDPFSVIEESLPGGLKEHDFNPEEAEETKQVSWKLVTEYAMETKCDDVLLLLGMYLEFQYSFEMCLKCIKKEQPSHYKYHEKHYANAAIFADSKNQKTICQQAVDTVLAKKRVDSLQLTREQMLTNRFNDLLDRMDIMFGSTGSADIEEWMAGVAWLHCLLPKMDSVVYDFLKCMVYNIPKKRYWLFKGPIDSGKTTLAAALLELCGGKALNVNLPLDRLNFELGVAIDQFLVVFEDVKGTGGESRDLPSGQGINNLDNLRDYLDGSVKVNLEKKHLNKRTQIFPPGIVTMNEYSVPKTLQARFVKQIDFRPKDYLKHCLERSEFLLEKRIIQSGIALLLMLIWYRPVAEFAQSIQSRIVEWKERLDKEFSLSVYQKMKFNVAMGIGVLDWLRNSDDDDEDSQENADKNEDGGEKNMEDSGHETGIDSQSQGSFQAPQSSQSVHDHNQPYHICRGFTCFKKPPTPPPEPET

[9] = growth suppression of beta-catenin-knockout colon cells, dose response, cell-based, HCT116, human colon tumor (AID 1045); assay type: functional;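 also: HCT116 colon tumor cells with beta catenin knocked out; cells exposed to compound for 60 hours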
Cytochrome P450 3A4 = Cytochrome P450 3A4 (Homo sapiens, UniProt P08684);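 also: CYP3A4 tested as one member of a cytochrome P450 panel screen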
Sequence of Cytochrome P450 3A4 (P08684 whole entry): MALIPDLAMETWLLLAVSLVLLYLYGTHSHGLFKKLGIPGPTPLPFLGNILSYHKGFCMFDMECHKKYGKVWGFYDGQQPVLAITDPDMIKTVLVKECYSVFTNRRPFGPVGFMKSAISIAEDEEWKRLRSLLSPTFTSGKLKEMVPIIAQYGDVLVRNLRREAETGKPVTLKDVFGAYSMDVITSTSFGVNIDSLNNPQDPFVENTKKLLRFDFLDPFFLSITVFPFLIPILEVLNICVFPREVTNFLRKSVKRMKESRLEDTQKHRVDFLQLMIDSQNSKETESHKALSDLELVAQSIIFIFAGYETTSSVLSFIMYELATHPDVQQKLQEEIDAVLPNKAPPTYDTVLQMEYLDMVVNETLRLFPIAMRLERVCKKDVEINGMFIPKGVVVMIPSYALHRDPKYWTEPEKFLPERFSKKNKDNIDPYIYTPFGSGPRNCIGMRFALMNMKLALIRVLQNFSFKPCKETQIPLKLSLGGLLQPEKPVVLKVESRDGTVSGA

[10] = biological target: Luciferin 4-monooxygenase (Photinus pyralis, UniProt P08659); assay: firefly luciferase enzyme inhibitors, dose response, biochemical, luminescence (AID 1891)
Sequence of Luciferin 4-monooxygenase (P08659 whole entry): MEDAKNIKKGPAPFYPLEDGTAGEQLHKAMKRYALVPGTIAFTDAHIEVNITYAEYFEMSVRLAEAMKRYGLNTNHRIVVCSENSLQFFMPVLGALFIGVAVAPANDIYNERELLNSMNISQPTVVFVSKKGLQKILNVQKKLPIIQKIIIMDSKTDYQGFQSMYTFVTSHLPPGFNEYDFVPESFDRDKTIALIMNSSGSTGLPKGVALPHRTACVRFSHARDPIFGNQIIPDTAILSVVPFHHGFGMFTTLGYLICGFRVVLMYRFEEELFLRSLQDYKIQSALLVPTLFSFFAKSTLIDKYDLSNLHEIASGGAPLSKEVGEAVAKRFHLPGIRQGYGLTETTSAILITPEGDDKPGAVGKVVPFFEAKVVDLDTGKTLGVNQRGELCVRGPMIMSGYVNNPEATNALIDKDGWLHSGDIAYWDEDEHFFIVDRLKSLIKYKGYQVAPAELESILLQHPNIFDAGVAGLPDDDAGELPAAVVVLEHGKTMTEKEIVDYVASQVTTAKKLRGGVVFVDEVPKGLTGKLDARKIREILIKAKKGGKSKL

[11] = Luminescence Cell-Based Dose Confirmation HTS to Identify Inhibitors of Platelet Dense Granule Release. [Related pubchem assays: 1663 (Primary HTS), 1678 (Summary of Project)]; assay type: functional
Genome polyprotein = Genome polyprotein (dengue virus type 2, UniProt P29990); assay: Dengue-2 NS5 methyltransferase inhibitors, primary screen, biochemical, confirmation dose response (AID 588689); assay type: functional
Sequence of Genome polyprotein (P29990 2492-3391 limits assumed): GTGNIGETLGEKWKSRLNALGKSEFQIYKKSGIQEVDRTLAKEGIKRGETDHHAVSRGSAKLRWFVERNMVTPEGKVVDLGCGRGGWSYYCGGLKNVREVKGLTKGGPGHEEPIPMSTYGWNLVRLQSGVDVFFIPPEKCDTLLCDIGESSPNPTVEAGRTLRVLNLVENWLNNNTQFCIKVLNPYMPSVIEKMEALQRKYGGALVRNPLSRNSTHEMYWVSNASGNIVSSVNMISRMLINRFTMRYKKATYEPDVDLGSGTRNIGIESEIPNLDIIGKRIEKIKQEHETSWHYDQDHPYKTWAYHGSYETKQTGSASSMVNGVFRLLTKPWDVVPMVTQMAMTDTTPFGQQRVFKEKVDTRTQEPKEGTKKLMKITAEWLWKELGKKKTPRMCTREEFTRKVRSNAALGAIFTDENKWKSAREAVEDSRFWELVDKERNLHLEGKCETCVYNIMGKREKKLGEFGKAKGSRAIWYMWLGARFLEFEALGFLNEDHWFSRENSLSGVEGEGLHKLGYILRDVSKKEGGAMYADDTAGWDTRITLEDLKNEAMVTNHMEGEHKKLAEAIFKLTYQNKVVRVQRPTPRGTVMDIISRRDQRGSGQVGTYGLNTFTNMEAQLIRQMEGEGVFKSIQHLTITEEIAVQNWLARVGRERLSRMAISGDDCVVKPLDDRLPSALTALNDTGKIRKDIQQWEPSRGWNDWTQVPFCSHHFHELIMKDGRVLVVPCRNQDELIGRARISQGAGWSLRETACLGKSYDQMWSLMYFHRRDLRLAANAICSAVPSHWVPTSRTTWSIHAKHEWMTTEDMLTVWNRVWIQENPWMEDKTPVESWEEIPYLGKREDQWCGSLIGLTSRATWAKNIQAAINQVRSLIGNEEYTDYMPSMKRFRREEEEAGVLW

[12] = biological target: T3, Polyadenylate-binding protein 1 (Homo sapiens, UniProt P11940); assay: PABP1 MLLE–PAM2 binding inhibitor potency, dose response, biochemical, fluorescence polarization, FITC-PAM2 peptide (AID 602259); assay type: functional; settings: read-out: IC50_Mean
T3 sequence (P11940 whole entry): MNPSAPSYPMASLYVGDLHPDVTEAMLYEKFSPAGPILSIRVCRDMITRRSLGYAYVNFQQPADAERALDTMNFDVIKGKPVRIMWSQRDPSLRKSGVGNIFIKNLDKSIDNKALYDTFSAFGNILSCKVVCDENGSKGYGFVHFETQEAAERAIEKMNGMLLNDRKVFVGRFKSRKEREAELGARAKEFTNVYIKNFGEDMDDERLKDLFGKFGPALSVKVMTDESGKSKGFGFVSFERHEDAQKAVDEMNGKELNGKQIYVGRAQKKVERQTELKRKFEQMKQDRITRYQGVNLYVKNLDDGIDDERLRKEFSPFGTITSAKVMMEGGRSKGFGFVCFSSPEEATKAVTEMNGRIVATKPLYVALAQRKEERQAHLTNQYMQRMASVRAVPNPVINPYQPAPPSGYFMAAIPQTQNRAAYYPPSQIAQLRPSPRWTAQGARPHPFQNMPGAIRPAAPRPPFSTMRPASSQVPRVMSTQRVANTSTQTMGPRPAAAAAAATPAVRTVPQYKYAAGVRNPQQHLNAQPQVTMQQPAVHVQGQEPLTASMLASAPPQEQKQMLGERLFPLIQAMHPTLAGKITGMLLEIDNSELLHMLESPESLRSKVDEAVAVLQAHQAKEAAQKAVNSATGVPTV

[13] = biological target: T3, Polyadenylate-binding protein 1; assay: PABP1 MLLE–PAM2 interaction inhibitors, dose response, miRNA deadenylation inhibitor project, biochemical, fluorescence polarization, Cy5-PAM2 peptide, secondary (AID 602260); assay type: functional; settings: read-out: IC50_Mean
[14] = microbe, parasite or virus in culture; assay type: functional; settings: Mycobacterium tuberculosis
[15] = cytotoxicity toward NIH3T3 fibroblasts, dose response, counter-screen, cell-based, ATP luminescence, mouse fibroblasts (AID 2010); assay type: functional;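 also: cells exposed to compound for about 90 hours before reading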
[16] = inhibitors of intracellular T. cruzi replication, confirmation, NIH3T3 host cells, beta-gal luminescence (AID 2044); assay type: functional, cell-based;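 also: intracellular parasites grown in NIH/3T3 mouse fibroblasts as host cells; luminescent beta-galactosidase reporter signal from transgenic T. cruzi replicating inside host cells; inhibitors lower the luminescence signal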
cells [17] = assay type: functional
Vero = assay: cells; assay type: functional; settings: Chlorocebus sabaeus
[18] = THP-1 cell cytotoxicity, dose response, cytotoxicity control for non-replicating M. tuberculosis project (AID 489025); assay type: functional
[19] = Vero E6 cell cytotoxicity, dose response, cytotoxicity control for non-replicating M. tuberculosis project, secondary assay (AID 492998); assay type: functional, VeroE6; settings: Vero C1008
INS1 = assay: beta cell apoptosis inhibitors, cytokine rescue, dose response, luminescence, retest (AID 449756); assay type: functional, cell-based; settings: Rattus norvegicus;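 also: cell death triggered by IL-1 beta plus TNF-alpha plus IFN-gamma mixture; protective hits raise ATP signal compared with cytokine alone wells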
Nonstructural protein 1 = Nonstructural protein 1 (Influenza A virus, UniProt Q194T2); assay type: functional, Influenza A virus (A/California/07/2009(H1N1))
Sequence of Nonstructural protein 1 (Q194T2 whole entry): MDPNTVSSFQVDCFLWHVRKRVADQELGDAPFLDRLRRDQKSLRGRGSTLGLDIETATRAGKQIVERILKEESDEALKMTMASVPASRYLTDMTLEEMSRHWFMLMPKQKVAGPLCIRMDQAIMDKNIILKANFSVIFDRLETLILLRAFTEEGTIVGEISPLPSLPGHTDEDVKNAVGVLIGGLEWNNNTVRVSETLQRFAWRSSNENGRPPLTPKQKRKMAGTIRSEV

[20] = Luminescence Cell-Based Dose Retest to Confirm Inhibitors of Cancer Stem Cells. [Related pubchem assays (depositor defined):AID2717, AID2721]; assay type: functional; settings: Homo sapiens
[21] = NIH-3T3 fibroblast cytotoxicity, dose response, cytotoxicity control, cell-based, fluorescence, Alamar Blue, secondary assay (AID 2327); assay type: functional;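 also: NIH-3T3 mouse fibroblasts cultured with fluconazole at 8 µg/mL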
[22] = C. albicans growth with fluconazole, confirmation, fluorescence, retest (AID 2467); assay type: functional, cell-based
[23] = P. falciparum ATP4 D1247Y mutant growth inhibitors, dose response, NITD609-resistant line, SYBR Green, dry powder (AID 1159571); assay type: functional, cell-based;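 also: parasites synchronized at ring stage by sorbitol before testing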
[24] = P. falciparum Dd2 growth inhibitors, dose response, SYBR Green, dry powder samples (AID 1159566); assay type: functional, cell-based;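 also: potency for growth inhibition with lower SYBR green DNA signal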
[25] = P. falciparum 3D7-ScDHODH growth inhibitors, dose response, SYBR Green, dry powder samples (AID 1159570); assay type: functional, cell-based;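 also: parasite growth measured after 72 hours of compound exposure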
[26] = P. falciparum Dd2 growth inhibitors, dose response, SYBR Green, cherry-picked samples (AID 1159567); assay type: functional, cell-based
[27] = biological target: T4, High affinity choline transporter 1 (Homo sapiens, UniProt Q9GZV3); assay: CHT inhibitors, dose response, cell-based, 5-point CRC, membrane potential dye (AID 504840); assay type: functional
T4 sequence (Q9GZV3 whole entry): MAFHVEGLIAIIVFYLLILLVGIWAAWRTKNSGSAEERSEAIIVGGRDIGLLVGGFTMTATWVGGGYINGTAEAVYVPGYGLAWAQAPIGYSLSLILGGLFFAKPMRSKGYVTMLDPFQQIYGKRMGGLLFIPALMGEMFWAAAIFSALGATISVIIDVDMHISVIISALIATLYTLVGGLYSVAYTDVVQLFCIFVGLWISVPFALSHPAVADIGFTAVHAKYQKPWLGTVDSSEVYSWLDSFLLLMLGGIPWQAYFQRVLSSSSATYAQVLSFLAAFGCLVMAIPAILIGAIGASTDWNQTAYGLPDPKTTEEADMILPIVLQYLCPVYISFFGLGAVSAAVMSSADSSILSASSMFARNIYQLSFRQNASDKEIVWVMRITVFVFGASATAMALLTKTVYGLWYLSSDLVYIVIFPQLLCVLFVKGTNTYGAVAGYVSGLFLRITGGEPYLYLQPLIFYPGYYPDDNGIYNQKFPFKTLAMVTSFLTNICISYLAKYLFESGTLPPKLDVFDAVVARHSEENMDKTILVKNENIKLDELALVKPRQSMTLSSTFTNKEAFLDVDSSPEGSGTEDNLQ

Sequence of Induced myeloid leukemia cell differentiation protein Mcl-1 (Q07820 whole entry): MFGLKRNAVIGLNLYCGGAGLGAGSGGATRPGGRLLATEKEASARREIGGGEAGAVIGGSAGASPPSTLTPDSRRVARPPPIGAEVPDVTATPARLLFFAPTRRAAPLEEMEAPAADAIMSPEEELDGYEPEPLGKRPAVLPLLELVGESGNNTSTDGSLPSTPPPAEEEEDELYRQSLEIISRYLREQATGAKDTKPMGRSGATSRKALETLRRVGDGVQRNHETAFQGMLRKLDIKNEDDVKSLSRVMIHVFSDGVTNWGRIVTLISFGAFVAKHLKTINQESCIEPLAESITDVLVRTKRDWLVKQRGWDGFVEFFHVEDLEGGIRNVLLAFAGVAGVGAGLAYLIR

## Cc1c(NS(=O)(=O)c2cc(NC(=O)CCN3CCCC(C)C3)ccc2Cl)c(=O)n(-c2ccccc2)n1C (centres undefined)
[1]
  IC50: 4.67 µM (not active)

## C[C@@]12C(=O)Nc3ccc(Cl)cc3C(=O)N1[C@H]1c3ccccc3OC[C@@H]1[C@@H]2c1ccccc1
[2]
  AC50: 0.611 µM (active)

## COc1ccc(C(=O)N(C)Cc2cnn(Cc3ccccc3)c2)cc1S(=O)(=O)N1CCOCC1
[3]
  IC50: > 80 µM (inactive)

## CCCOc1ccc(N2C(=O)CC(N3CCC(C(=O)OCC)CC3)C2=O)cc1 (centres undefined)
[2]
  AC50: 3.1 µM (active)

## Cc1ccc2c(c1)COc1c3ccc(C(=O)N[C@@H](C)CO)cc3nn1-2
Cells [4]
  IC50: 41.5 µM (active)
[5]
  CC50: > 50 µM (active)

## CCN(CC)C1=N/C(=C\c2ccc(OC)cc2)C(=O)N1c1ccccc1
Cells [4]
  IC50: 4.49 µM (active)
[5]
  CC50: 9.86 µM (active)

## Cc1ccc(NC(=S)Nc2cccc3cnccc23)cc1
[6]
  IC50: > 50 µM (not active)

## COc1ccc(N(C)C(=S)Nc2ccc3nc(C)c(C)nc3c2)cc1
[6]
  IC50: > 50 µM (not active)

## c1ccc(Cn2nnc3c(N4CCCCCC4)ncnc32)cc1
Cells [4]
  IC50: 49.5 µM (active)
[5]
  CC50: 17 µM (active)

## COc1cc(/C=C/c2nc3ccccc3c(=O)n2-c2cccc(O)c2)ccc1O
[1]
  IC50: 8.49 µM (active)

## COc1ccccc1C(=O)NNC(=S)NC(=O)c1ccco1
[2]
  AC50: 1.42 µM (active)

## C=CCN1C(=O)/C(=C/c2cc(C)n(-c3cccnc3)c2C)C(=O)NC1=S
[6]
  IC50: > 50 µM (not active)
[7]
  AC50: 16.8 µM (active)
[8]
  EC50: 89.5 µM (active)
Large T antigen
  IC50: 66.7 µM (active)
[9]
  EC50: 53.3 µM (active)

## Cc1cnc(CNc2cc(-c3ccccc3C)ncn2)cn1
Cytochrome P450 3A4
  AC50: inconclusive

## COc1cc2c(cc1OC)C1=C(C#N)CN(CC(=O)O)CN1CC2
[10]
  EC50: > 112 µM (not active)
[6]
  IC50: 34.1 µM (active)
[11]
  EC50: > 112 µM (not active)

## Cc1cc[n+](-c2[n-]c(=O)sc2C=NNC(=O)c2ccncc2)cc1
Genome polyprotein
  IC50: 83.8 µM (active)
[12]
  IC50: 36 µM (inactive)
[13]
  IC50: > 66 µM (inactive)

## Nc1ccc(-c2nc3cc(-c4nc5ccccc5o4)ccc3[nH]2)cc1
[14]
  CC50: > 40 µM (active)
Cells [4]
  IC50: 33.4 µM (active)
[5]
  CC50: 48.2 µM (active)

## Cc1cccc(-c2csc(N)c2C(=O)OC(C)C)c1
[6]
  IC50: > 50 µM (not active)

## Cn1c2ccccc2c(=O)c2c(=O)n(Cc3ccco3)c(-c3ccc(Cl)cc3Cl)nc21
Cells [4]
  IC50: 10.2 µM (active)
[15]
  EC50: > 30 µM (not active)
[5]
  CC50: 15.5 µM (active)
[16]
  EC50: 0.978 µM (active)

## CCOC(=O)CN1C(=O)N[C@@H](c2cccc(F)c2)C(C(C)=O)=C1C
Cells [4]
  IC50: 12.8 µM (active)
[5]
  CC50: 44.1 µM (active)

## O=C(Nc1ccccn1)c1ccc([N+](=O)[O-])o1
Cells [17]
  IC50: 13.6 µM (active)
Vero
  CC50: > 25 µM (active)
[18]
  CC50: 26.3 µM (active)
[19]
  CC50: 13.4 µM (active)

## C/C(=N\NC(=O)c1cc(C)nc2ccccc12)c1ccccn1
INS1
  AC50: 0.626 µM (active)
[3]
  IC50: > 80 µM (inactive)
Nonstructural protein 1
  IC50: 2.23 µM (active)
[20]
  AC50: 3.37 µM (active)

## O=C(N/N=C/c1ccc(O)c(O)c1)/C(O)=C\C1=NC2(CCCC2)Cc2ccccc21
[1]
  IC50: 3.56 µM (active)

## O=C1CCC/C(=N/Nc2ccc(Cl)cc2)C1
Cells [17]
  IC50: 16.9 µM (active)
[21]
  EC50: > 150 µM (inactive)
Genome polyprotein
  IC50: 93.3 µM (active)
[18]
  CC50: > 40 µM (active)

## O=C(N/N=C\c1ccc([N+](=O)[O-])s1)c1cncc(Br)c1
Cells [17]
  IC50: 12.6 µM (active)
[21]
  EC50: 29.4 µM (active)
INS1
  AC50: 7.04 µM (active)
[7]
  AC50: 4.34 µM (active)
[8]
  EC50: 1.09 µM (active)
[18]
  CC50: 5.8 µM (active)
[9]
  EC50: 0.452 µM (active)
[22]
  EC50: 4.15 µM (active)
[19]
  CC50: 4.83 µM (active)

## CC1(C)CC(=O)C(=CNc2cccc(/N=C/C3=C(O)CC(C)(C)CC3=O)n2)C(=O)C1
[1]
  IC50: 1.31 µM (not active)

## CC(/C=N\Nc1n[nH]c2c3cccc(C)c3nc-2n1)=C\c1ccco1
[1]
  IC50: 3.46 µM (active)

## C[C@@H]1CN([C@@H](C)CO)C(=O)c2cccc(NC(=O)c3nc4ccccc4s3)c2O[C@H]1CN(C)C(=O)Nc1cccc2ccccc12
[23]
  AC50: 0.802 µM (active)
[24]
  AC50: 0.766 µM (active)
[25]
  AC50: 0.595 µM (active)

## COc1ccc(-c2ccc([C@H]3[C@H](C#N)N(C(=O)c4cccc(F)c4)[C@H]3CO)cc2)cc1
[23]
  AC50: 2 µM (active)
[26]
  AC50: 2.71 µM (active)
[24]
  AC50: 1.85 µM (active)
[25]
  AC50: 2.24 µM (active)

## Cc1ccc(C(=O)/C=C/C(=O)O)cc1
Genome polyprotein
  IC50: > 100 µM (active)
[27]
  IC50: 10.5 µM (active)
[12]
  IC50: > 66 µM (inactive)
[13]
  IC50: > 66 µM (inactive)

## NC(=O)COc1ccc2c3c(c(=O)oc2c1)CCCCC3
[21]
  EC50: > 160 µM (inconclusive)
[22]
  EC50: > 38 µM (not active)
Cells [4]
  IC50: 42.2 µM (active)
